This is an account of results in patent publication US9061030B2, “sGC stimulators” (IRONWOOD PHARMACEUTICALS, INC., priority 2010, dated 2015).

For assay [1], the target named is T1, soluble guanylate cyclase (sGC) (Homo sapiens, UniProt Q02108+Q02153).
T1 construct: endogenously expressing soluble guanylate cyclase (sGC); endogenous in cells; host or cells: HEK293
T1 sequence (Q02153 1-619): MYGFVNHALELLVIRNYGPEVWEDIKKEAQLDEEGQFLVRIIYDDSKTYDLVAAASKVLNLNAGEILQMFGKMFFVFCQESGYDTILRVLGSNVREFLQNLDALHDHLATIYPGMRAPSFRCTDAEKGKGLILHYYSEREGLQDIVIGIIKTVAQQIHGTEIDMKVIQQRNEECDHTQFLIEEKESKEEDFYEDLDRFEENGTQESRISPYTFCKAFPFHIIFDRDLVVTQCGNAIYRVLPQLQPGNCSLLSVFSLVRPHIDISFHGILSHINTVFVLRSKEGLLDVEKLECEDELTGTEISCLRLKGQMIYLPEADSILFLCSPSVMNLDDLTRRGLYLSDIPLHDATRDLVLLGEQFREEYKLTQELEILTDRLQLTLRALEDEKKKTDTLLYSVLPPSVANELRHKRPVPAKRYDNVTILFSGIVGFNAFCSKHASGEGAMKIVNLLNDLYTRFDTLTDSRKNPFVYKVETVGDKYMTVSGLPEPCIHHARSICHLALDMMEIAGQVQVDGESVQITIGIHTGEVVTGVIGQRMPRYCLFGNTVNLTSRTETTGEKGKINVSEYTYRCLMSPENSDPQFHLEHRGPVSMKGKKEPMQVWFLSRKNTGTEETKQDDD
T1 sequence (Q02108 1-690): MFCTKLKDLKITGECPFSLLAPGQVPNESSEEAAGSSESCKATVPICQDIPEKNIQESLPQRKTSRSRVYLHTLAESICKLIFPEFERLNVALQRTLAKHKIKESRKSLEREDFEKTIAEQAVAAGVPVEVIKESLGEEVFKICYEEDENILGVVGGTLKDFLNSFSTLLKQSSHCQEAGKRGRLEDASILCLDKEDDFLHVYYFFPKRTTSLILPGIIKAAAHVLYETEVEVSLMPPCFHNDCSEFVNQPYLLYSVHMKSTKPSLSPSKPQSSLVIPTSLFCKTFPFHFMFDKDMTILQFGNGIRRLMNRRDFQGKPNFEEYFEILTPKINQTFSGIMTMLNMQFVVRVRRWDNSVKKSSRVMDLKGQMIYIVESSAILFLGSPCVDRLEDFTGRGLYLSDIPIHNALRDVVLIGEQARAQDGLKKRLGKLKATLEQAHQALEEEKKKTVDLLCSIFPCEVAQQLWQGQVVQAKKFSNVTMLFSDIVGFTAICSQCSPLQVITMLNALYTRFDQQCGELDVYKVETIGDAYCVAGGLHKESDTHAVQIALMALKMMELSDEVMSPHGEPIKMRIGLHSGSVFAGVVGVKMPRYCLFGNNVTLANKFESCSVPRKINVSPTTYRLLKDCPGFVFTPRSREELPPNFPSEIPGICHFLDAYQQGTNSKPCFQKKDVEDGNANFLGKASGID
As to the kind of experiment: sGC-HEK-cGMP assay. The settings on record: HEK293 cells, 10 μM SNP, percentage of sGC activity obtained with positive control BAY 41-2272 (= 100%); for Emax at 10 µM: compound at 10 μM; for Emax at 30 µM: compound at 30 μM. Type of assay: cell-based. Here is the method: Human embryonic kidney cells (HEK293), endogenously expressing soluble guanylate cyclase (sGC), were used to evaluate the activity of the test compounds. Compounds stimulating the sGC receptor should cause an increase in the intracellular concentration of cGMP. HEK 293 cells were seeded in Dulbecco's Modification of Eagle's Medium supplemented with fetal bovine serum (10% final) and L-glutamine (2 mM final) in a 200 μL volume at a density of 1×10^5 cells/well in a poly-D-lysine coated 96 well flat bottom plate and grown overnight at 37° C. Medium was aspirated and cells were washed with 1× Hank's Buffered Saline Salt Solution (200 μL). Cells were then incubated for 15 minutes at 37° C. with 0.5 mM 3-isobutyl-1-methylxanthine (200 μL). Test article was then added to the assay mixture (2 μL) and incubated in the presence of 10 μM Sodium Nitroprusside (SNP) at 37° C. for 10 minutes. After the 10 minute incubation, the assay mixture was aspirated and 0.1M HCl (200 μL) was added to the cells. The plate was incubated at 4° C. for 30 minutes in the 0.1M HCl to stop the reaction and lysed the cells. The plates were then centrifuged at 1,200 g for 5 minutes at room temperature. Supernatants were collected and transferred to a new flat bottom 96 well plate for analysis. Vehicle controls were carried out using DMSO (1%). A known sGC stimulator, BAY 41-2272, was used as the positive control.
Samples were diluted with an equal volume of 1 M Ammonium Acetate (pH 7) to neutralize samples for better chromatography. A 2×cGMP standard curve was prepared in 0.1 M HCl and then diluted with an equal volume of 1 M Ammonium Acetate, with the following final concentrations in nM: 1024, 512, 256, 128, 64, 32, 16, 8, 4, 2, 1.cGMP concentrations were determined from each sample using the LC/MS conditions (Table 2 below) and calculated standard curve. EC50 values were calculated from concentration-response curves generated with GraphPad Prism Software.
The biological activities of some of the compounds according to Formula IA or Formula IB determined with the sGC-HEK assay are summarized in Table 3 below.

The target in assay [2] is T2, Human soluble guanylate cyclase enzyme (hsGC) (Homo sapiens, UniProt Q02108+Q02153).
T2 construct: purchased Enzo Inc. ALX-201-177
T2 sequence (Q02153 1-619): T1 sequence (Q02153 1-619)
T2 sequence (Q02108 1-690): T1 sequence (Q02108 1-690)
As to the kind of experiment: Purified human sGC enzyme activity assay (with or without SNP). Type of assay: biochemical. The note with it: 30 μM compound; for sGC Enzyme Activity Increase at 30 μM with SNP: 1 μM SNP, specific activity vs DMSO and SNP; for sGC Enzyme Activity Increase at 30 μM without SNP: specific activity vs DMSO control. Here is the method:
Human soluble guanylate cyclase enzyme (hsGC) obtained from Enzo Inc. (P/N: ALX-201-177) was used to evaluate the activity of test compounds. The assay reactions contained 0.1 M Tris (pH 8.0), 0.5 mg/mL BSA (pH 8.0), 2 mM DTT, 2 mM MgCl2, 300 μM GTP, 1 mM 3-isobutyl-1-methylxanthine (IBMX) and 5 ng human soluble guanylate cyclase enzyme. Test compounds in DMSO were then added (2 μL, 10 or 30 μM final concentration) and incubated (200 μL, 96-well plate format) at 37° C. for 30 minutes. The controls were carried out using 2 μL DMSO. After the 30 minute incubation, the reaction was stopped with the addition of 200 μL of cold methanol. The plate was then centrifuged at 3,200 rpm for 10 minutes at room temperature. Supernatants (200 μL) were collected and transferred to a new 96 well plate for analysis.
An 8 point cGMP (Sigma-Aldrich P/N: G6129) standard curve was prepared in assay buffer ranging from 0.156-20 μM. Samples for the cGMP standard curve were then diluted with an equal volume of methanol resulting in final cGMP concentrations of 0.078-10 μM.
The cGMP standard curve was generated using GraphPad Prism Software.
Calculations: Specific Activity was determined by the amount of cGMP formed (nmoles) per mg of sGC per min. Enzyme activity “fold-change” was calculated by dividing the Specific Activity for a test compound by the Specific Activity of DMSO control.
The enzymatic activity fold-change of the purified human sGC enzyme determined in the presence of each of the test compounds individually at 10 or 30 μm without the addition of sodium nitroprusside (SNP), a nitric oxide donor, is presented in Table 5.
Enzyme assays were also performed as described above, but in the presence of 1 μM sodium nitroprusside (SNP). Enzymatic activity fold-changes are reported for selected test compounds in the presence of both SNP and the test compound. These were calculated by dividing the specific activity (activity increase) for the test compound dissolved in DMSO and SNP over the specific activity for the mixture of DMSO and SNP.

As usually defined, the Emax is the greatest response seen or fitted, relative to the assay's reference. On to `Fc1ccccc1Cn1nc(-c2ccccn2)nc1-c1ccccc1` [Compound I-2], for which, in assay [1], the maximum response (Emax) at 10 µM was 5 to 10% and the Emax at 30 µM lay in the range of 5 to 10%. In assay [2], the “sGC Enzyme Activity Increase at 30 μM with SNP” value is “C (C = 2 to <5 fold increase)” and the “sGC Enzyme Activity Increase at 30 μM without SNP” value was “D (D = 5 to <10 fold increase)”.
Take `Fc1ccccc1Cn1nc(-c2cscn2)nc1-c1ccccn1` [Compound I-5]: in assay [1], the maximal response (Emax) at 10 µM was 5 to 10% and the Emax at 30 µM lay in the range of 10 to 20%. Besides, in assay [2], the “sGC Enzyme Activity Increase at 30 μM with SNP” value is “C (C = 2 to <5 fold increase)” and the “sGC Enzyme Activity Increase at 30 μM without SNP” value was “B (B = 1 to <2 fold increase)”.
For `Fc1ccccc1Cn1nc(-c2ncco2)nc1-c1ccccn1` [Compound I-7] the same measures were 0 to 5%, 5 to 10%, “B (B = 1 to <2 fold increase)” and “B (B = 1 to <2 fold increase)”.
The corresponding values for `Fc1ccccc1Cn1nc(-c2ncco2)nc1-c1ncccn1` [Compound I-8] are 0 to 5%, 0 to 5%, “B (B = 1 to <2 fold increase)” and “C (C = 2 to <5 fold increase)”.
Turning to `Fc1ccccc1Cn1nc(-c2ncccn2)nc1-c1ncco1` [Compound I-9], in assay [1], the Emax at 10 µM fell in the range of 0 to 5% and the maximal response (Emax) at 30 µM was 5 to 10%. In assay [2], the “sGC Enzyme Activity Increase at 30 μM with SNP” value was “B (B = 1 to <2 fold increase)” and the “sGC Enzyme Activity Increase at 30 μM without SNP” value is given as “C (C = 2 to <5 fold increase)”.
The corresponding values for `Fc1ccccc1Cn1nc(-c2ncccn2)nc1-c1ccco1` [Compound I-11] are 10 to 20%, 10 to 20%, “C (C = 2 to <5 fold increase)” and “C (C = 2 to <5 fold increase)”.
As for `Fc1ccccc1Cn1nc(-c2cocn2)nc1-c1ccccn1` [Compound I-13, 4-(1-(2-fluorobenzyl)-5-(pyridin-2-yl)-1H-1,2,4-triazol-3-yl)oxazole], in assay [1], the Emax at 10 µM is 0 to 5% and the Emax at 30 µM was 0 to 5%. Also, in assay [2], the “sGC Enzyme Activity Increase at 30 μM with SNP” value is “B (B = 1 to <2 fold increase)” and the “sGC Enzyme Activity Increase at 30 μM without SNP” value was “C (C = 2 to <5 fold increase)”.
In assay [1], `Nc1cccc(-c2nc(-c3nccs3)n(Cc3ccccc3F)n2)n1` [Compound I-14, 6-(1-(2-fluorobenzyl)-5-(thiazol-2-yl)-1H-1,2,4-triazol-3-yl)pyridin-2-amine] came in with an Emax at 10 µM of 5 to 10% and an Emax at 30 µM of 10 to 20%. Moreover, in assay [2], the “sGC Enzyme Activity Increase at 30 μM with SNP” value is “C (C = 2 to <5 fold increase)” and the “sGC Enzyme Activity Increase at 30 μM without SNP” value was “B (B = 1 to <2 fold increase)”.
The corresponding values for `Fc1ccccc1Cn1nc(-c2ccccn2)nc1Br` [Compound I-16, 2-(5-bromo-1-(2-fluorobenzyl)-1H-1,2,4-triazol-3-yl)pyridine] are 0 to 5%, 5 to 10%, “C (C = 2 to <5 fold increase)” and “B (B = 1 to <2 fold increase)”.
For `Fc1ccccc1Cn1nc(-c2nccs2)nc1-c1cccc(Br)n1` [Compound I-18, 2-(5-(6-bromopyridin-2-yl)-1-(2-fluorobenzyl)-1H-1,2,4-triazol-3-yl)thiazole] the same measures were 0 to 5%, 0 to 5%, “C (C = 2 to <5 fold increase)” and “B (B = 1 to <2 fold increase)”.
Consider `Fc1ccccc1Cn1nc(-c2cccc(Br)n2)nc1-c1nccs1` [Compound I-19, 2-(3-(6-bromopyridin-2-yl)-1-(2-fluorobenzyl)-1H-1,2,4-triazol-5-yl)thiazole], for which, in assay [1], the Emax at 10 µM is 10 to 20% and the maximal response (Emax) at 30 µM lay in the range of 0 to 5%. For the same compound, in assay [2], the “sGC Enzyme Activity Increase at 30 μM with SNP” value is “C (C = 2 to <5 fold increase)” and the “sGC Enzyme Activity Increase at 30 μM without SNP” value is given as “B (B = 1 to <2 fold increase)”.
The corresponding values for `Fc1ccccc1Cn1nc(-c2cscn2)nc1-c1ncccn1` [Compound I-20] are 0 to 5%, 0 to 5%, “B (B = 1 to <2 fold increase)” and “B (B = 1 to <2 fold increase)”.
Consider `NC(=O)c1ccnc(-c2nc(-c3nccs3)n(Cc3ccccc3F)n2)c1` [Compound I-64, 2-(1-(2-fluorobenzyl)-5-(thiazol-2-yl)-1H-1,2,4-triazol-3-yl)isonicotinamide], for which, in assay [1], the Emax at 10 µM fell in the range of 10 to 20% and the maximal response (Emax) at 30 µM is 5 to 10%.
For `Nc1ccnc(-c2nc(-c3cocn3)n(Cc3ccccc3F)n2)c1` [Compound I-66, 2-(1-(2-fluorobenzyl)-5-(oxazol-4-yl)-1H-1,2,4-triazol-3-yl)pyridin-4-amine] the same measures were 40 to 60% and 40 to 60%.
